From ChEMBL document CHEMBL3885861, “Open TG-GATES”

Organism: Rattus norvegicus
Assay: Open TG-GATES - Regimen: Single
Type: toxicity, organism-based, Sprague-Dawley
Parameters: regimen Single, gender Male, age 6 weeks
Details: in vivo, po, 5 mg/kg, route gavage; for TG / TP / gamma-GTP / A/G / ALP / ALT / AST / BUN / CRE / Ca / Cl / DBIL / GLC / IP / K / LDH / Na / PL / RALB / TBIL / TC: tissue Plasma; for APTT / Bas / Eos / Fbg / Hb / Ht / Lym / MCH / MCHC / MCV / Mono / Neu / PT / Plat / RBC / Ret / WBC: tissue Blood; for KIDNEY_L / KIDNEY_R / KIDNEY_TOTAL: tissue Kidney; for LIVER: tissue Liver

COc1ccc2c(c1)c(CC(=O)O)c(C)n2C(=O)c1ccc(Cl)cc1 [INDOMETHACIN]
TG (3 h, dose level Low): 59.6 mg/dL
TP (3 h, dose level Low): 5.4 g/dL
gamma-GTP (3 h, dose level Low): 1 IU/L
TERMINAL_BW (6 h, dose level High): 202.4 g
TERMINAL_BW (6 h, dose level Low): 222.1 g
APTT (6 h, dose level High): 16.9 s
Bas (6 h, dose level High): 0%
Eos (6 h, dose level High): 0.8%
Fbg (6 h, dose level High): 205.2 mg/dL
Hb (6 h, dose level High): 12.7 g/dL
Ht (6 h, dose level High): 38.6%
Lym (6 h, dose level High): 69.4%
MCH (6 h, dose level High): 21.3 pg
MCHC (6 h, dose level High): 32.8%
MCV (6 h, dose level High): 64.9 fL
Mono (6 h, dose level High): 13%
Neu (6 h, dose level High): 16.8%
PT (6 h, dose level High): 12.8 s
Plat (6 h, dose level High): 112.7 x10_4/uL
RBC (6 h, dose level High): 594.6 x10_4/ul
Ret (6 h, dose level High): 10.3%
WBC (6 h, dose level High): 87.2 x10_2/uL
APTT (6 h, dose level Low): 18.4 s
Eos (6 h, dose level Low): 0.4%
Fbg (6 h, dose level Low): 230 mg/dL
Hb (6 h, dose level Low): 13.9 g/dL
Ht (6 h, dose level Low): 38%
Lym (6 h, dose level Low): 79.6%
MCH (6 h, dose level Low): 22.6 pg
MCHC (6 h, dose level Low): 36.4%
MCV (6 h, dose level Low): 62 fL
Mono (6 h, dose level Low): 2.8%
Neu (6 h, dose level Low): 15.4%
PT (6 h, dose level Low): 12.4 s
Plat (6 h, dose level Low): 118.2 x10_4/uL
RBC (6 h, dose level Low): 613.2 x10_4/ul
Ret (6 h, dose level Low): 8%
WBC (6 h, dose level Low): 100.8 x10_2/uL
KIDNEY_L (6 h, dose level High): 0.9 g
KIDNEY_R (6 h, dose level High): 0.9 g
KIDNEY_TOTAL (6 h, dose level High): 1.9 g
KIDNEY_L (6 h, dose level Low): 1 g
KIDNEY_R (6 h, dose level Low): 1 g
LIVER (6 h, dose level High): 9 g
LIVER (6 h, dose level Low): 9.1 g
A/G (6 h, dose level High): 1.9
ALP (6 h, dose level High): 908.6 IU/L
ALT (6 h, dose level High): 35.6 IU/L
AST (6 h, dose level High): 69 IU/L
BUN (6 h, dose level High): 13.6 mg/dL
CRE (6 h, dose level High): 0.5 mg/dL
Ca (6 h, dose level High): 10.2 mg/dL
Cl (6 h, dose level High): 108.2 meq/L
DBIL (6 h, dose level High): 0.014 mg/dL
GLC (6 h, dose level High): 194.8 mg/dL
IP (6 h, dose level High): 9.4 mg/dL
K (6 h, dose level High): 5.1 meq/L
LDH (6 h, dose level High): 186.4 IU/L
Na (6 h, dose level High): 137.4 meq/L
PL (6 h, dose level High): 120 mg/dL
RALB (6 h, dose level High): 3.8 g/dL
TBIL (6 h, dose level High): 0.3 mg/dL
TC (6 h, dose level High): 68.4 mg/dL
TG (6 h, dose level High): 48 mg/dL
TP (6 h, dose level High): 5.8 g/dL
gamma-GTP (6 h, dose level High): 1.2 IU/L
A/G (6 h, dose level Low): 1.5
ALP (6 h, dose level Low): 938.4 IU/L
ALT (6 h, dose level Low): 36.2 IU/L
AST (6 h, dose level Low): 75.8 IU/L
BUN (6 h, dose level Low): 12 mg/dL
CRE (6 h, dose level Low): 0.4 mg/dL
Ca (6 h, dose level Low): 10.4 mg/dL
Cl (6 h, dose level Low): 103.2 meq/L
DBIL (6 h, dose level Low): 0.076 mg/dL
GLC (6 h, dose level Low): 197.2 mg/dL
IP (6 h, dose level Low): 9.2 mg/dL
K (6 h, dose level Low): 4 meq/L
LDH (6 h, dose level Low): 231 IU/L
Na (6 h, dose level Low): 140.8 meq/L
PL (6 h, dose level Low): 135.2 mg/dL
RALB (6 h, dose level Low): 3.3 g/dL
TBIL (6 h, dose level Low): 0.1 mg/dL
TC (6 h, dose level Low): 77.4 mg/dL
TG (6 h, dose level Low): 62.8 mg/dL
TP (6 h, dose level Low): 5.4 g/dL
gamma-GTP (6 h, dose level Low): 0.8 IU/L
TERMINAL_BW (9 h, dose level High): 198.4 g
TERMINAL_BW (9 h, dose level Low): 221 g
APTT (9 h, dose level High): 16.9 s
Bas (9 h, dose level High): 0%
Eos (9 h, dose level High): 0.6%
Fbg (9 h, dose level High): 213.6 mg/dL
Hb (9 h, dose level High): 13.2 g/dL
Ht (9 h, dose level High): 39.6%
Lym (9 h, dose level High): 84.2%
MCH (9 h, dose level High): 21.6 pg
MCHC (9 h, dose level High): 33.3%
MCV (9 h, dose level High): 65 fL
Mono (9 h, dose level High): 7.8%
Neu (9 h, dose level High): 7.4%
PT (9 h, dose level High): 12.6 s
Plat (9 h, dose level High): 102.6 x10_4/uL
RBC (9 h, dose level High): 609.4 x10_4/ul
Ret (9 h, dose level High): 9.6%
WBC (9 h, dose level High): 107 x10_2/uL
APTT (9 h, dose level Low): 18.2 s
Eos (9 h, dose level Low): 0.4%
Fbg (9 h, dose level Low): 228.6 mg/dL
Hb (9 h, dose level Low): 13.7 g/dL
Ht (9 h, dose level Low): 37.7%
Lym (9 h, dose level Low): 76.4%
MCH (9 h, dose level Low): 22.2 pg
MCHC (9 h, dose level Low): 36.4%
MCV (9 h, dose level Low): 60.8 fL
Mono (9 h, dose level Low): 3%
Neu (9 h, dose level Low): 18%
PT (9 h, dose level Low): 12.2 s
Plat (9 h, dose level Low): 126.8 x10_4/uL
RBC (9 h, dose level Low): 620.4 x10_4/ul
Ret (9 h, dose level Low): 7.9%
WBC (9 h, dose level Low): 86 x10_2/uL
KIDNEY_L (9 h, dose level High): 0.9 g
KIDNEY_R (9 h, dose level High): 0.9 g
KIDNEY_TOTAL (9 h, dose level High): 1.9 g
KIDNEY_R (9 h, dose level Low): 1 g
LIVER (9 h, dose level High): 8.1 g
LIVER (9 h, dose level Low): 8.6 g
A/G (9 h, dose level High): 2.5
ALP (9 h, dose level High): 961.6 IU/L
ALT (9 h, dose level High): 34.6 IU/L
AST (9 h, dose level High): 66 IU/L
BUN (9 h, dose level High): 12.6 mg/dL
CRE (9 h, dose level High): 0.5 mg/dL
Ca (9 h, dose level High): 10.1 mg/dL
Cl (9 h, dose level High): 105.6 meq/L
DBIL (9 h, dose level High): 0.042 mg/dL
GLC (9 h, dose level High): 183.4 mg/dL
IP (9 h, dose level High): 9.8 mg/dL
K (9 h, dose level High): 5.3 meq/L
LDH (9 h, dose level High): 192.8 IU/L
Na (9 h, dose level High): 137.2 meq/L
PL (9 h, dose level High): 117 mg/dL
RALB (9 h, dose level High): 3.9 g/dL
TBIL (9 h, dose level High): 0.5 mg/dL
TC (9 h, dose level High): 65.6 mg/dL
TG (9 h, dose level High): 34.4 mg/dL
TP (9 h, dose level High): 5.4 g/dL
